Consider 29 compounds from patent US8501946B2 (Glaxo Group Limited, priority 2009, dated 2013).

Like-named read-outs stand apart in the source and are kept apart here. A value given as a limit tells only on which side of the number the result lay.

This test has as its target T1, human recombinant P2X7 receptors (Homo sapiens, UniProt Q99572).
T1 construct: expressed in transfected cells
T1 sequence (Q99572 1-595): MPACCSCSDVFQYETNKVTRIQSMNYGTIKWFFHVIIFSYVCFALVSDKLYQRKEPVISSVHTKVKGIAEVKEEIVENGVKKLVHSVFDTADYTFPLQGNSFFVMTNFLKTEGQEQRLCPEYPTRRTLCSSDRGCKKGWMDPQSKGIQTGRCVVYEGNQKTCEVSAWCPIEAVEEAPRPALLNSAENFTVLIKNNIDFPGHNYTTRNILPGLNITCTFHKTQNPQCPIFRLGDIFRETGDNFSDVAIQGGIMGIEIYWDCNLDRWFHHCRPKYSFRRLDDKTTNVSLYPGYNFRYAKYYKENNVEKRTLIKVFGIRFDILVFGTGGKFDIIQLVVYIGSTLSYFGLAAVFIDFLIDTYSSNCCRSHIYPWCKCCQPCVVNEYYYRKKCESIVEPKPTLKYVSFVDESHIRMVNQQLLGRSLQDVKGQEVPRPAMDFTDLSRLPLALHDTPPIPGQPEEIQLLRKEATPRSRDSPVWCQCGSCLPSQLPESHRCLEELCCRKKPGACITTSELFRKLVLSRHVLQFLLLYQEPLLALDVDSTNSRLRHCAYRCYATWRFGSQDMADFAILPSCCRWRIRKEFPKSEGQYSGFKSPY
Briefly: Ethidium Accumulation Assay 2 (HEK293 cells, ATP-induced ethidium uptake). Type of test: cell-based. The conditions noted are these: HEK293 cells expressing human P2X7. The procedure: Eithidium Accumulation Assay 2
Human Embryonic Kidney (HEK) 293 cells, stably expressing human recombinant P2X7 receptors, were grown in poly-D-lysine pretreated 96 well plates for 24 hours at 37° C.
The cells were washed with assay buffer (100 μL), before addition of 25 μL of assay buffer and then 25 ul of assay buffer containing the putative P2X7 receptor antagonist compound. The cells were then incubated at room temperature (19-21° C.) for 30 min before addition of ATP solution (50 μM). […] Antagonist pIC50 values for blocking ATP responses were determined using iterative curve fitting techniques.

Setting [1] is: sometimes mean of more than one measurement, read-out: Assay 2 (antagonist pIC50 for blocking ATP responses) (converted).

On to `O=C(c1ccc(Cl)c(F)c1Cl)N1CCn2c(nnc2-c2ccc(F)cc2O)C1` [Example 150, 2-{7-[(2,4-dichloro-3-fluorophenyl)carbonyl]-5,6,7,8-tetrahydro[1,2,4]triazolo[4,3-a]pyrazin-3-yl}-5-fluorophenol], for which, under setting [1], the IC50 was < 100 nM. Regarding `O=C(c1ccc(Cl)c(F)c1Cl)N1CCn2c(nnc2-c2ncccc2O)C1` [Example 175, 2-{7-[(2,4-dichloro-3-fluorophenyl)carbonyl]-5,6,7,8-tetrahydro[1,2,4]triazolo[4,3-a]pyrazin-3-yl}-3-pyridinol], the IC50 under setting [1] is < 100 nM. On to `O=C(c1ccc(Cl)c(F)c1Cl)N1CCn2c(nnc2-c2ncccc2F)C1` [Example 170, 7-[(2,4-dichloro-3-fluorophenyl)carbonyl]-3-(3-fluoro-2-pyridinyl)-5,6,7,8-tetrahydro[1,2,4]triazolo[4,3-a]pyrazine], for which the IC50 under setting [1] is < 10 nM. The same measure, in the same setting: with `Cc1c(C(=O)N2CCn3c(nnc3-c3ncns3)C2)ccc(F)c1Cl` [Example 193, 7-[(3-Chloro-4-fluoro-2-methylphenyl)carbonyl]-3-(1,2,4-thiadiazol-5-yl)-5,6,7,8-tetrahydro[1,2,4]triazolo[4,3-a]pyrazine] the figure was < 10 nM; with `Cc1ccc(-c2nnc3n2CCN(C(=O)c2ccc(F)c(Cl)c2Cl)C3)o1` [Example 167, 7-[(2,3-Dichloro-4-fluorophenyl)carbonyl]-3-(5-methyl-2-furanyl)-5,6,7,8-tetrahydro[1,2,4]triazolo[4,3-a]pyrazine], < 100 nM; with `O=C(c1ccc(Cl)cc1Cl)N1CCn2c(nnc2-c2nccs2)C1` [Example 199, 7-[(2,4-Dichlorophenyl)carbonyl]-3-(1,3-thiazol-2-yl)-5,6,7,8-tetrahydro[1,2,4]triazolo[4,3-a]pyrazine], < 100 nM. As to `COc1cccc(-c2nnc3n2CCN(C(=O)c2ccc(Cl)c(F)c2Cl)C3)n1` [Example 176, 7-[(2,4-dichloro-3-fluorophenyl)carbonyl]-3-[6-(methyloxy)-2-pyridinyl]-5,6,7,8-tetrahydro[1,2,4]triazolo[4,3-a]pyrazine], the IC50 under setting [1] was < 100 nM. Still for that read-out and setting: the value for `O=C(c1ccc(Cl)c(F)c1Cl)N1CCn2c(nnc2-c2cccnc2O)C1` [Example 171, 3-{7-[(2,4-dichloro-3-fluorophenyl)carbonyl]-5,6,7,8-tetrahydro[1,2,4]triazolo[4,3-a]pyrazin-3-yl}-2-pyridinol] was < 100 nM; that for `O=C(c1ccc(Cl)cc1Cl)N1CCn2c(nnc2-c2cnsn2)C1` [Example 160, 7-[(2,4-dichlorophenyl)carbonyl]-3-(1,2,5-thiadiazol-3-yl)-5,6,7,8-tetrahydro[1,2,4]triazolo[4,3-a]pyrazine] was < 100 nM. As for `O=C(c1ccc(Cl)cc1Cl)N1CCn2c(nnc2-c2ccon2)C1` [Example 161, 7-[(2,4-dichlorophenyl)carbonyl]-3-(3-isoxazolyl)-5,6,7,8-tetrahydro[1,2,4]triazolo[4,3-a]pyrazine], under setting [1], the IC50 was < 501 nM. On the same count and under the same terms, the value for `O=C(c1ccc(Cl)c(F)c1Cl)N1CCn2c(nnc2-n2cccn2)C1` [Example 184, 7-[(2,4-Dichloro-3-fluorophenyl)carbonyl]-3-(1H-pyrazol-1-yl)-5,6,7,8-tetrahydro[1,2,4]triazolo[4,3-a]pyrazine] was < 100 nM.

Turning to `Cc1ccnc(-c2nnc3n2CCN(C(=O)c2ccc(Cl)c(F)c2Cl)C3)n1` [Example 177, 7-[(2,4-dichloro-3-fluorophenyl)carbonyl]-3-(4-methyl-2-pyrimidinyl)-5,6,7,8-tetrahydro[1,2,4]triazolo[4,3-a]pyrazine], under setting [1], the IC50 is < 10 nM. In the case of `Cc1nnsc1-c1nnc2n1CCN(C(=O)c1ccc(Cl)c(F)c1Cl)C2` [Example 179, 7-[(2,4-Dichloro-3-fluorophenyl)carbonyl]-3-(4-methyl-1,2,3-thiadiazol-5-yl)-5,6,7,8-tetrahydro[1,2,4]triazolo[4,3-a]pyrazine], the IC50 (read-out: Assay 2 (antagonist pIC50 for blocking ATP responses), numeric value (converted)) was 631 nM. With `O=C(c1ccc(Cl)c(F)c1Cl)N1CCn2c(nnc2-c2ccns2)C1` [Example 178, 7-[(2,4-dichloro-3-fluorophenyl)carbonyl]-3-(5-isothiazolyl)-5,6,7,8-tetrahydro[1,2,4]triazolo[4,3-a]pyrazine], the IC50 under setting [1] was < 100 nM. `Cc1scnc1-c1nnc2n1CCN(C(=O)c1cccc(Cl)c1C)C2` [Example 207, 7-[(3-chloro-2-methylphenyl)carbonyl]-3-(5-methyl-1,3-thiazol-4-yl)-5,6,7,8-tetrahydro[1,2,4]triazolo[4,3-a]pyrazine]: the IC50 under setting [1] was < 100 nM. Same read-out and setting: with `O=C(c1cccc(Cl)c1Cl)N1CCn2c(nnc2-c2ncns2)C1` [Example 192, 7-[(2,3-Dichlorophenyl)carbonyl]-3-(1,2,4-thiadiazol-5-yl)-5,6,7,8-tetrahydro [1,2,4]triazolo[4,3-a]pyrazine] the figure was < 10 nM; with `Cc1ccc(C(=O)N2CCn3c(nnc3-c3cnccn3)C2)c(Cl)c1Cl` [Example 152, 7-[(2,3-dichloro-4-methylphenyl)carbonyl]-3-(2-pyrazinyl)-5,6,7,8-tetrahydro[1,2,4]triazolo[4,3-a]pyrazine], < 10 nM. Consider `O=C(c1ccc(F)cc1Cl)N1CCn2c(nnc2-c2nccs2)C1` [Example 144, 7-[(2-chloro-4-fluorophenyl)carbonyl]-3-(1,3-thiazol-2-yl)-5,6,7,8-tetrahydro[1,2,4]triazolo[4,3-a]pyrazine], for which the IC50 under setting [1] is < 100 nM. `Cc1csnc1-c1nnc2n1CCN(C(=O)c1ccc(Cl)c(F)c1Cl)C2` [Example 203, 7-[(2,4-dichloro-3-fluorophenyl)carbonyl]-3-(4-methyl-3-isothiazolyl)-5,6,7,8-tetrahydro[1,2,4]triazolo[4,3-a]pyrazine]: the IC50 under setting [1] was < 100 nM. `O=C(c1cccc(C(F)(F)F)c1Cl)N1CCn2c(nnc2-c2ncns2)C1` [Example 164, 7-{[2-chloro-3-(trifluoromethyl)phenyl]carbonyl}-3-(1,2,4-thiadiazol-5-yl)-5,6,7,8-tetrahydro[1,2,4]triazolo[4,3-a]pyrazine]: the IC50 under setting [1] was < 10 nM.

With `Cc1cnc(-c2nnc3n2CCN(C(=O)c2ccc(Cl)c(F)c2Cl)C3)s1` [Example 188, 7-[(2,4-Dichloro-3-fluorophenyl)carbonyl]-3-(5-methyl-1,3-thiazol-2-yl)-5,6,7,8-tetrahydro[1,2,4]triazolo[4,3-a]pyrazine], the IC50 under setting [1] is < 100 nM.

As for `O=C(c1ccc(Cl)cc1Cl)N1CCn2c(nnc2-c2ccno2)C1` [Example 157, 7-[(2,4-dichlorophenyl)carbonyl]-3-(5-isoxazolyl)-5,6,7,8-tetrahydro[1,2,4]triazolo[4,3-a]pyrazine], the IC50 under setting [1] was < 501 nM.

Consider `O=C(c1ccc(Cl)c(F)c1Cl)N1CCn2c(nnc2-c2cnsn2)C1` [Example 190, 7-[(2,4-Dichloro-3-fluorophenyl)carbonyl]-3-(1,2,5-thiadiazol-3-yl)-5,6,7,8-tetrahydro[1,2,4]triazolo[4,3-a]pyrazine], for which the IC50 under setting [1] is < 10 nM. Consider `Cc1c(Cl)cccc1C(=O)N1CCn2c(nnc2-c2ncns2)C1` [Example 195, 7-[(3-Chloro-2-methylphenyl)carbonyl]-3-(1,2,4-thiadiazol-5-yl)-5,6,7,8-tetrahydro[1,2,4]triazolo[4,3-a]pyrazine], for which the IC50 under setting [1] was < 10 nM. As to `Cc1c(C(=O)N2CCn3c(nnc3-c3ccc(F)cn3)C2)ccc(F)c1Cl` [Example 156, 7-[(3-chloro-4-fluoro-2-methylphenyl)carbonyl]-3-(5-fluoro-2-pyridinyl)-5,6,7,8-tetrahydro[1,2,4]triazolo[4,3-a]pyrazine], the IC50 under setting [1] is < 10 nM. For `COc1ccnc(-c2nnc3n2CCN(C(=O)c2ccc(Cl)c(F)c2Cl)C3)c1` [Example 174, 7-[(2,4-dichloro-3-fluorophenyl)carbonyl]-3-[4-(methyloxy)-2-pyridinyl]-5,6,7,8-tetrahydro[1,2,4]triazolo[4,3-a]pyrazine], the IC50 under setting [1] was < 10 nM.

As for `Cc1c(C(=O)N2CCn3c(nnc3-c3cnccn3)C2)ccc(F)c1Cl` [Example 146, 7-[(3-chloro-4-fluoro-2-methylphenyl)carbonyl]-3-(2-pyrazinyl)-5,6,7,8-tetrahydro[1,2,4]triazolo[4,3-a]pyrazine], the IC50 under setting [1] was < 10 nM. With `N#Cc1c(Cl)cccc1C(=O)N1CCn2c(nnc2-c2ccccn2)C1` [Example 204, 2-Chloro-6-{[3-(2-pyridinyl)-5,6-dihydro[1,2,4]triazolo[4,3-a]pyrazin-7(8H)-yl]carbonyl}benzonitrile], the IC50 under setting [1] was < 10 nM. With `Cc1scnc1-c1nnc2n1CCN(C(=O)c1ccc(Cl)cc1Cl)C2` [Example 206, 7-[(2,4-dichlorophenyl)carbonyl]-3-(5-methyl-1,3-thiazol-4-yl)-5,6,7,8-tetrahydro[1,2,4]triazolo[4,3-a]pyrazine], the IC50 under setting [1] was < 100 nM.
